According to patent US20040063736A1, “Combination of active ingredients containing alfuzosine and apomorphine” (priority 2001, published 2004):

Test system: hypertensive rats (SHR)
Test: Erectile responses (number of erections, intracavernous pressure) in anaesthetised hypertensive rats
Details: for N animals with erections/N animals / Number of erections (mean ± sem): 30 min after infusion
[1] = alfuzosine 3, 10 or 30 μg/kg alone (i.v. infusion)
[2] = Table 2, apomorphine 50 μg/kg alone
[3] = apomorphine 10 μg/kg s.c. + 5% glucose infusion
[4] = apomorphine 20 μg/kg s.c. + 5% glucose infusion
[5] = apomorphine 50 μg/kg s.c. + 5% glucose infusion
[6] = apomorphine 100 μg/kg s.c. + 5% glucose infusion
[7] = apomorphine 250 μg/kg s.c. + 5% glucose infusion

What does the source list for `COc1cc2nc(N(C)CCCNC(=O)C3CCCO3)nc(N)c2cc1OC` (stereo not shown) [Alfuzosine]?
AUC [1]: 0 mmHg · sec; Duration of erection [1]: 0 s; n animal with erections/n animal [1]: 0/6; number of erections [1]: 0; ΔICP [1]: 0 mmHg; induction of erections per se (alfuzosine 3 to 100 μg/kg i.v. after vehicle of apomorphine): Neither 5% glucose nor alfuzosine (3 to 100 μg/kg i.v.) was able to induce per se erections

How did the AUC [2] turn out when `CN1CCc2cccc3c2[C@H]1Cc1ccc(O)c(O)c1-3` [Apomorphine] was run?
Its AUC is 640 ± 216 mmHg · sec.

What about the Duration of erection [2] of the same compound?
Its Duration of erection is 105 ± 23 s.

What about the “n animal with erections/n animal” value [2] of the same compound?
The value was 9/9.

And the number of erections [2]?
Its number of erections is 2.6 ± 0.4.

What about the “ΔICP” value [2] of the same compound?
The value was 29 ± 7 mmHg.

What about the AUC [3] of the same compound?
The AUC was 0 mmHg · sec.

And the Duration [3]?
Its Duration is 0 s.

What about the ΔICP [3] of the same compound?
Its ΔICP is 0 mmHg.

And the “N animals with erections/N animals” value [3]?
The value was 0/8.

What about the “Number of erections (mean ± sem)” value [3] of the same compound?
The value was 0.

What about the AUC [4] of the same compound?
Its AUC is 582 ± 172 mmHg · sec.

And the Duration [4]?
The Duration was 61 ± 7 s.

And the ΔICP [4]?
Its ΔICP is 41.4 ± 13.9 mmHg.

And the “N animals with erections/N animals” value [4]?
The value was 5/10.

And the “Number of erections (mean ± sem)” value [4]?
The value was 0.5000.

What about the AUC [5] of the same compound?
Its AUC is 640 ± 215 mmHg · sec.

What about the Duration [5] of the same compound?
The Duration was 105 ± 23 s.

What about the ΔICP [5] of the same compound?
The ΔICP was 29.3 ± 6.5 mmHg.

And the “N animals with erections/N animals” value [5]?
Its value is 9/9.

And the “Number of erections (mean ± sem)” value [5]?
The value was 2.5556.

What about the AUC [6] of the same compound?
Its AUC is 501 ± 193 mmHg · sec.

And the Duration [6]?
Its Duration is 71 ± 19 s.

And the ΔICP [6]?
Its ΔICP is 25.5 ± 8.2 mmHg.

And the “N animals with erections/N animals” value [6]?
Its value is 9/9.

What about the “Number of erections (mean ± sem)” value [6] of the same compound?
The value was 3.1111.

What about the AUC [7] of the same compound?
The AUC was 1073 ± 237 mmHg · sec.

And the Duration [7]?
Its Duration is 71 ± 19 s.

And the ΔICP [7]?
Its ΔICP is 58.6 ± 9.7 mmHg.

And the “N animals with erections/N animals” value [7]?
The value was 6/6.

And the “Number of erections (mean ± sem)” value [7]?
The value was 5.0000.

What about the erectile responses (apomorphine 10-250 μg/kg s.c.) of the same compound?
Its erectile responses is “induced concentration-dependent erectile responses”.

And the “first dose triggering erections in some animals in comparison to the control group” value (apomorphine s.c.)?
The value was 0.02 mg/kg.

And the “first dose which induced at least one erectile event in all the animals” value (apomorphine s.c.)?
The value was 0.05 mg/kg.

And the number of erections (text b79, apomorphine 50 μg/kg alone)?
The number of erections was 2.6±0.4.
